This note sets out measurements from US8178530B2, “Imidazolopyrazine compounds useful for the treatment of degenerative and inflammatory diseases” (Janssen Pharmaceutica NV, priority 2006, dated 2012).

Bounds are passed on as bounds.

The first assay has as its system TNFα release by human PBMCs. The assay is described as follows: Cytokine release by LPS-stimulated human PBMCs (TNFα ELISA). Format: cell-based. The note with it: LPS 1 μg/mL, 24 hr, read-out: PBMC EC50. The protocol: Human peripheral blood mononuclear cells (PBMCs) are isolated from “buffy coats” prepared from the blood of healthy volunteers, isolated essentially according to method of Bøyum (1984). In brief, buffy coat is diluted 1:1 with 1×PBS (Gibco) and 30 mL is carefully put on top of 20 mL Lymphoprep™ (Lucron Bioproducts) in 50 mL Falcon tubes. After centrifugation (35 min, 400 g, 18° C.) the mononuclear cells are collected from the white interphase and washed 3 times with 1×PBS by resuspending and centrifugation (10 min, 200 g). Isolated PBMCs are finally resuspended in RPMI 1640 (Cat. No. 21875, Gibco) that is supplemented with 10% heat-inactivated FBS (Hyclone).
For the assay PBMCs are seeded at 2.5E6 cells/mL in 160 μL in 96-well plates (Nunc). Serial dilution of the test compounds are made first in DMSO (Sigma) and then diluted 50-fold in M199 medium (Gibco) containing 1% heat-inactivated FBS. Compounds are further 1/10 diluted in the assay plates to obtain final DMSO concentration of 0.2%. Cells are preincubated with the compounds for 1 hr at 37° C., 5% CO2. Then, cells are stimulated with LPS (Escherichia coli serotype 026:B6, Cat. No. L2654, Sigma) that is added in a volume of 20 μL to a final concentration of 1 μg/mL and cells are further cultured for 24 hr. The plates are centrifuged and the supernatant is collected and stored at −80° C. until analysis of appropriate dilutions in ELISAs.
The following 384-well chemiluminescent ELISA protocol was developed to measure TNFα levels in the supernatant: White Lumitrac 600 384-well plates (Greiner) are coated with (40 μL/well) anti-TNFα capture antibody (Cat. No. 551220, BD Pharmingen) that is diluted to 1 μg/mL in 1×PBS (Gibco). After overnight incubation at 4° C., plates are washed with 1×PBS (80 g NaCl, 2 g KCl (Sigma), 11.5 g Na2HPO4.7H2O and 2 g KH2PO4 in 10 L milliQ; pH 7.4) and blocked with 100 μL/well buffer B (1×PBS containing 1% BSA (Sigma), 5% sucrose (Sigma) and 0.05% NaN3 (Sigma)). After 4 hr incubation at RT, blocking buffer is removed and plates are washed once with PBST (1×PBS with 0.05% Tween-20 (Sigma)). Then, 40 μL of sample is transferred to the ELISA plates and plates are incubated at 4° C. Next day, plates are washed 3 times (twice with PBST and once with PBS) and 35 μL/well biotinylated anti-TNFα antibody (Cat. No. 554511, BD Pharmingen) diluted first to a concentration of 250 ng/ml in buffer D (1×PBS with 1% BSA) is added. After 2 h of incubation at RT, plates are washed as described above and 35 μL/well of a 1/2000 dilution of streptavidin-HRP conjugate (Cat. No. SNN2004, Biosource) in buffer D is added. After 45 min, plates are washed as described above and incubated for 5 min with 50 μL/well BM Chemiluminescence ELISA Substrate POD (Roche). Readout is performed on the Luminoscan Ascent Luminometer (Labsystems) with an integration time of 100 msec delivering raw data (RLU: relative luminescence units). The following controls are included in the experiments, a maximal signal control, in which the cells are activated by LPS but only the 0.2% DMSO vehicle (and thus no compound) is added. This control indicates the maximal level of TNFα that can be achieved in the test. A minimal signal control is also included in these experiments. Here, cells are not triggered. This control returns the basal TNFα levels produced by the PBMCs. The percent inhibition (PIN) of the TNFα release, achieved by the compounds is then calculated based on the RLU data returned by the ELISA with following formula: 100−[((TNFα level compound X at concentration Y−minimal TNFα levels)/(maximal TNFα levels−minimal TNFα levels))×100]. Where compounds are tested at 8 concentrations (1/3 serial dilution), EC50-values can be calculated by curve fitting of the means of the PIN data achieved for a compound at each test concentration. […]
For “4-(8-{4-[1-(2,2,2-Trifluoroethyl)piperidin-4-yl]phenylamino}imidazo[1,2-a]pyrazin-5-yl)thiophene-2-carboxylic acid amide [Compound 192]”, the EC50 was more than 1000 nM.

Staying with this assay, now noted: PBMC, LPS 1 μg/mL, 24 hr.
Take `CCN(CC)CCNS(=O)(=O)c1ccc(Nc2ncc(-c3cn[nH]c3)n3ccnc23)cc1` [Compound 69, N-(2-Diethylaminoethyl)-4-[5-(1H-pyrazol-4-yl)imidazo[1,2-a]pyrazin-8-ylamino]benzenesulfonamide]: the half-maximal effective concentration (EC50) was in the range of 501 to 1000 nM. The same measure, in the same setting: next, `CN1CCN(c2ccc(Nc3ncc(-c4cscn4)n4ccnc34)cc2)CC1` [Compound 138]: 101 to 500 nM; `CN(C)C(CNC(=O)c1ccc(Nc2ncc(-c3cc[nH]c(=O)c3)n3ccnc23)cc1)c1cccnc1` (stereo not drawn) [Compound 114]: more than 1000 nM; `CCN(CC)CCNC(=O)c1ccc(Nc2ncc(-c3cn[nH]c3)n3ccnc23)c(F)c1` [Compound 83]: more than 1000 nM. Still for that read-out and setting: next, `O=C(NCc1ccc(O)cc1)c1ccc(Nc2ncc(-c3cn[nH]c3)n3ccnc23)cc1` [Compound 90, N-(4-Hydroxybenzyl)-4-[5-(1H-pyrazol-4-yl)imidazo[1,2-a]pyrazin-8-ylamino]benzamide]: more than 1000 nM.

`CCN(CC)CCNS(=O)(=O)c1ccc(Nc2ncc(-c3ccc(C(N)=O)cc3)n3ccnc23)cc1` [Compound 98] showed a half-maximal effective concentration (EC50) of more than 1000 nM. Same read-out and setting: next, `CN1CCN(c2ccc(Nc3ncc(-c4ccc(C(N)=O)o4)n4ccnc34)cc2)CC1` [Compound 139, 5-{8-[4-(4-Methyl-piperazin-1-yl)-phenylamino]-imidazo[1,2-a]pyrazin-5-yl}-furan-2-carboxylic acid amide]: more than 1000 nM. Same read-out and setting: next, `CN(C)c1ccc(CNC(=O)c2ccc(Nc3ncc(-c4cn[nH]c4)n4ccnc34)cc2)cc1` [Compound 89]: more than 1000 nM; `O=C(c1ccc(Nc2ncc(-c3cn[nH]c3)n3ccnc23)cc1)N1CCOCC1` [Compound 45]: more than 1000 nM; `C[C@@H]1CN(c2ccc(Nc3ncc(-c4cc(C(N)=O)co4)n4ccnc34)cc2)[C@@H](C)CN1C` [Compound 187]: more than 1000 nM.

Molecule `CN1CCC(COc2ccc(Nc3ncc(-c4ccc(C(N)=O)c(F)c4)n4ccnc34)cc2)CC1` [Compound 159, 2-Fluoro-4-{8-[4-(1-methyl-piperidin-4-ylmethoxy)-phenylamino]-imidazo[1,2-a]pyrazin-5-yl}-benzamide] registered a half-maximal effective concentration (EC50) of more than 1000 nM. On the same count and under the same terms, next, `C[C@@H]1CN(c2ccc(Nc3ncc(-c4ccc(C(N)=O)cc4)n4ccnc34)cc2)C[C@H](C)N1C` [Compound 155]: more than 1000 nM. `CC(C)N1CCN(c2ccc(Nc3ncc(-c4ccc(C(N)=O)cc4)n4ccnc34)cc2)CC1` [Compound 142] gave a concentration giving a half-maximal response (EC50) of more than 1000 nM. Still for that read-out and setting: next, `O=C1NCc2cc(-c3cnc(Nc4cccnc4)c4nccn34)ccc21` [Compound 197]: more than 1000 nM; `NC(=O)c1c(F)cc(-c2cnc(Nc3ccc(N4CCOCC4)cc3)c3nccn23)cc1F` [Compound 165]: more than 1000 nM; `O=C(NC1CCNC1)c1ccc(Nc2ncc(-c3cn[nH]c3)n3ccnc23)cc1` (stereo not drawn) [Compound 55]: more than 1000 nM.

With `C[C@@H]1CN(C)[C@@H](C)CN1c1ccc(Nc2ncc(-c3ccc(C(N)=O)cc3)n3ccnc23)cc1` [Compound 137], the EC50 was more than 1000 nM. Still for that read-out and setting: next, `Cc1[nH]ncc1-c1cnc(Nc2ccc(N3CCN(C)CC3)cc2)c2nccn12` [Compound 119, (4-(4-Methylpiperazin-1-yl)phenyl)-[5-(5-methyl-1H-pyrazol-4-yl)imidazo[1,2-a]pyrazin-8-yl]amine]: more than 1000 nM. On the same count and under the same terms, next, `NC(=O)c1ccc(Nc2ncc(-c3cn[nH]c3)n3ccnc23)cc1` [Compound 11]: more than 1000 nM; `CC(C)N1CCN(c2ccc(Nc3ncc(-c4ccc5c(c4)CNC5=O)n4ccnc34)cn2)CC1` [Compound 210, 5-{8-[6-(4-Isopropyl-piperazin-1-yl)-pyridin-3-ylamino]-imidazo[1,2-a]pyrazin-5-yl}-2,3-dihydro-isoindol-1-one]: more than 1000 nM; `c1cn2c(-c3cn[nH]c3)cnc(Nc3ccc(OCCN4CCOCC4)cc3)c2n1` [Compound 150, [4-(2-Morpholin-4-yl-ethoxy)-phenyl]-[5-(1H-pyrazol-4-yl)-imidazo[1,2-a]pyrazin-8-yl]-amine]: more than 1000 nM. `O=C1NCc2cc(-c3cnc(Nc4ccc(N5CCOCC5)cc4)c4nccn34)sc21` [Compound 198, 2-[8-(4-Morpholin-4-yl-phenylamino)-imidazo[1,2-a]pyrazin-5-yl]-4,5-dihydro-thieno[2,3-c]pyrrol-6-one] yielded a concentration for a half-maximal effect (EC50) of more than 1000 nM.

As for `CN1CCN(c2ccc(Nc3ncc(-c4cc(C(N)=O)cs4)n4ccnc34)cc2)CC1` [Compound 145, 5-{8-[4-(4-Methyl-piperazin-1-yl)-phenylamino]-imidazo[1,2-a]pyrazin-5-yl}-thiophene-3-carboxylic acid amide], the EC50 is more than 1000 nM.

`NC(=O)c1ccc(-c2cnc(Nc3ccc(-n4ccnc4)cc3)c3nccn23)cc1` [Compound 167] registered an EC50 of 1 to 100 nM.

On to `CNC(=O)c1ccc(-c2cnc(Nc3ccc(N4CCN(C)CC4)cc3)c3nccn23)cc1` [Compound 116], for which the EC50 is more than 1000 nM.

`c1cn2c(-c3cn[nH]c3C3CC3)cnc(Nc3ccc(N4CCOCC4)cc3)c2n1` [Compound 160, [5-(5-Cyclopropyl-1H-pyrazol-4-yl)-imidazo[1,2-a]pyrazin-8-yl]-(4-morpholin-4-yl-phenyl)-amine] gave a concentration for a half-maximal effect (EC50) of more than 1000 nM.

In the case of `CN1CCN(c2ccc(Nc3ncc(-c4ccc(C(N)=O)s4)n4ccnc34)cc2)CC1` [Compound 127, (4-(4-Methylpiperazin-1-yl)phenyl)-[5-(2-carboxamido-5-thienyl)imidazo[1,2-a]pyrazin-8-yl]amine], the EC50 was more than 1000 nM. `c1cn2c(-c3c[nH]cn3)cnc(Nc3ccc(N4CCOCC4)cc3)c2n1` [Compound 163] returned a concentration giving a half-maximal response (EC50) of more than 1000 nM. Same read-out and setting: next, `CC(C)N1CCN(c2ccc(Nc3ncc(-c4cc(F)c(C(N)=O)c(F)c4)n4ccnc34)cc2)CC1` [Compound 193]: more than 1000 nM.

Consider `Cc1[nH]ncc1-c1cnc(Nc2ccc(N3CCOCC3)cc2)c2nccn12` [Compound 176], for which the concentration for a half-maximal effect (EC50) is more than 1000 nM. Same read-out and setting: next, `NC(=O)c1ccc(-c2cnc(Nc3ccc(OCCN4CCOCC4)cc3)c3nccn23)cc1F` [Compound 146]: more than 1000 nM.

Molecule `CN1CCN(c2ccc(Nc3ncc(-c4cn[nH]c4)n4ccnc34)cc2)CC1` [Compound 14] yielded an EC50 of more than 1000 nM. Same read-out and setting: next, `Cc1oc(-c2cnc(Nc3ccc(N4CCOCC4)cc3)c3nccn23)cc1C(N)=O` [Compound 188]: more than 1000 nM; `Cn1nnc(-c2ccc(Nc3ncc(-c4cn[nH]c4)n4ccnc34)cc2)n1` [Compound 169, [4-(2-Methyl-2H-tetrazol-5-yl)-phenyl]-[5-(1H-pyrazol-4-yl)-imidazo[1,2-a]pyrazin-8-yl]-amine]: more than 1000 nM. The molecule `NC(=O)c1ccc(-c2cnc(Nc3ccc(-c4cccnc4)cc3)c3nccn23)cc1` [Compound 153] returned a concentration giving a half-maximal response (EC50) of 1 to 100 nM. Still for that read-out and setting: next, `CN1CCN(c2ccc(Nc3ncc(-c4csc(C(N)=O)c4)n4ccnc34)cc2)CC1` [Compound 118]: more than 1000 nM.

The molecule `O=C(Nc1ccccc1)c1ccc(Nc2ncc(-c3cn[nH]c3)n3ccnc23)cc1` [Compound 41] yielded an EC50 of more than 1000 nM. On the same count and under the same terms, next, `O=C(NCCc1cccnc1)c1ccc(Nc2ncc(-c3cn[nH]c3)n3ccnc23)cc1` [Compound 93]: more than 1000 nM.

As usually defined, the EC50 is the midpoint of the concentration-response curve.
